Results: ChEMBL document CHEMBL1201862, “PubChem BioAssay data set” (2004)
The source made the active and inactive calls. For most assays here, no stated cut-off is given here; in the data, actives have a measured EC50 and inactives only a lower limit.

Experiments:
[1] = cytotoxicity toward DRD oncogenic fibroblasts, dose response, cell-based, non-viral oncogenic, luminescence (AID 1934); type: functional; conditions: Homo sapiens
BJ [2] = experiment: cytotoxicity toward BJ-TERT-LT-ST fibroblasts, dose response, cell-based, RAS-independent, luminescence (AID 1935); type: functional; conditions: Homo sapiens;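 further: BJ fibroblasts immortalized with TERT plus LT and ST oncogenes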
BJ [3] = experiment: cells; type: functional, cell-based; conditions: Homo sapiens
BJ [4] = experiment: cytotoxicity toward BJ-TERT fibroblasts, dose response, cell-based, RAS-independent, luminescence (AID 1933); type: functional; conditions: Homo sapiens
[5] = target: Glyceraldehyde-3-phosphate dehydrogenase (Homo sapiens, UniProt P04406)
Glyceraldehyde-3-phosphate dehydrogenase, sequence (P04406 whole entry): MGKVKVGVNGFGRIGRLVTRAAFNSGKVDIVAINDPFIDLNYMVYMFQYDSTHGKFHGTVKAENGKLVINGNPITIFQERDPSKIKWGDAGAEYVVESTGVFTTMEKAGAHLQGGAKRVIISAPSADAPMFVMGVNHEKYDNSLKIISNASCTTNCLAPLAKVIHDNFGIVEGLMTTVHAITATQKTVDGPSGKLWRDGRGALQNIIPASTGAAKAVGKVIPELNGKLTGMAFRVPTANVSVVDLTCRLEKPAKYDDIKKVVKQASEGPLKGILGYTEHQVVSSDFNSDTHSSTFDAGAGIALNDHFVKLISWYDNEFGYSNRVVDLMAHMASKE

Protein RecA = target: T1, Protein RecA (Mycobacterium tuberculosis, UniProt P9WHJ3); experiment: Fluorescence Cell-Free Homogeneous Dose Retest to Identify Inhibitors of RecA-Intein Splicing Activity. [Related pubchem assays (depositor defined):AID2097, AID2223, AID489010, AID492950]; type: functional
T1 sequence (P9WHJ3 whole entry): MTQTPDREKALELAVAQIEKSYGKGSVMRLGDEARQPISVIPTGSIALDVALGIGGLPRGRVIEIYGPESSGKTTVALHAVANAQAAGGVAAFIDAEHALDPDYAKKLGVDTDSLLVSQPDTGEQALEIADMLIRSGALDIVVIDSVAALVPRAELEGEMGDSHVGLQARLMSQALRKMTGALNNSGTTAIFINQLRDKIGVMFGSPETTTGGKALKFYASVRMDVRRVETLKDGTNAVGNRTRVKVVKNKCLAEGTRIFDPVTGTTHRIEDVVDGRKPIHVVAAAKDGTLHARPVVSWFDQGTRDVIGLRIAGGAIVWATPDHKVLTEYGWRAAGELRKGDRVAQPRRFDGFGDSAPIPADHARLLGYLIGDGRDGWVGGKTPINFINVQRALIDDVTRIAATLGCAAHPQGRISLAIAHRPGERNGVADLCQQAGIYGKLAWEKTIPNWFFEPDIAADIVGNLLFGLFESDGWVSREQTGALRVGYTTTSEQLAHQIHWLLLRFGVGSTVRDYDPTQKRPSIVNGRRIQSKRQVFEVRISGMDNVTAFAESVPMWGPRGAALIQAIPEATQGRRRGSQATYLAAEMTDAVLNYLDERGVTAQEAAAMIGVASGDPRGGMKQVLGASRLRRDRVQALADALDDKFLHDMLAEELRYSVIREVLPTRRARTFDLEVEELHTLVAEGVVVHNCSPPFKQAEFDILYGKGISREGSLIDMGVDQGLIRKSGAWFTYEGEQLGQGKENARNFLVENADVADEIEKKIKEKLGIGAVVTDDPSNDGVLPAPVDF

[6] = target: T2, Replicative DNA helicase DnaB (Mycobacterium tuberculosis, UniProt P9WMR3); experiment: DnaB intein splicing inhibitors, dose response, biochemical, cell-free fluorescence (AID 449749); type: functional
T2 sequence (P9WMR3 whole entry): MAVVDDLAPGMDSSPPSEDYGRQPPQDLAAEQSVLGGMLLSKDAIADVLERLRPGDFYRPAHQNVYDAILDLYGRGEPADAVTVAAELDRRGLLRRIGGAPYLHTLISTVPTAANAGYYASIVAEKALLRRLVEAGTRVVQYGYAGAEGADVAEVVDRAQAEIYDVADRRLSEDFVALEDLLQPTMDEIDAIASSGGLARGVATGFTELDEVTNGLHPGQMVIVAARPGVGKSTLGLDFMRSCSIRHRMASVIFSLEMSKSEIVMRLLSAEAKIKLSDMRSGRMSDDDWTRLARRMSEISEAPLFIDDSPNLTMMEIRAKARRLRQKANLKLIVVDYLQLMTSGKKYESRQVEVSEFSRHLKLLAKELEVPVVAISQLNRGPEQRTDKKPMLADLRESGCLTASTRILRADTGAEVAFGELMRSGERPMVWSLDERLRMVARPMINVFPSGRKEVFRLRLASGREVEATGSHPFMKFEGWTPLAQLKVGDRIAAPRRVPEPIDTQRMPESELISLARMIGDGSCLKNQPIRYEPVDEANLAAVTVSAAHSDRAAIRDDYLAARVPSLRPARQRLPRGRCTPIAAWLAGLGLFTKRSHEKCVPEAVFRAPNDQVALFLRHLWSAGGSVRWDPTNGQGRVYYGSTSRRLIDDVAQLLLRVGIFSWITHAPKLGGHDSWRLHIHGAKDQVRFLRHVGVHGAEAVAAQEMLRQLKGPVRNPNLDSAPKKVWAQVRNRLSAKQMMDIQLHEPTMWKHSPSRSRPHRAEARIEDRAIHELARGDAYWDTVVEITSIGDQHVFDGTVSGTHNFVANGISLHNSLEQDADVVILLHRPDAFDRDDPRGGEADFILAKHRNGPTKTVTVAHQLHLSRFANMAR

[7] = cytotoxicity toward NIH3T3 fibroblasts, dose response, counter-screen, cell-based, ATP luminescence, mouse fibroblasts (AID 2010); type: functional;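 further: cells exposed to compound for about 90 hours before reading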
[8] = HEK293 cell cytotoxicity, dose response, cytotoxicity control, plate reader, cherry-picked samples (AID 743446); type: functional, cell-based
[9] = A549 cell cytotoxicity, dose response, cytotoxicity control, plate reader, cherry-pick, antagonist series (AID 743412); type: functional, cell-based
[10] = HepG2 cell cytotoxicity, dose response, cytotoxicity control, plate reader, cherry-pick, antagonist series (AID 743416); type: functional, cell-based
[11] = inhibitors of intracellular T. cruzi replication, confirmation, NIH3T3 host cells, beta-gal luminescence (AID 2044); type: functional, cell-based;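 further: intracellular parasites grown in NIH/3T3 mouse fibroblasts as host cells; luminescent beta-galactosidase reporter signal from transgenic T. cruzi replicating inside host cells; inhibitors lower the luminescence signal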
[12] = inhibitors of PGC1a acetylation in cells, dose response, cell-based, cherry-picked samples (AID 720514); type: functional;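 further: potency may reflect raised or lowered acetylation signal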
[13] = Luminescence Cell-Based Dose Confirmation HTS to Identify Activators of 5'UTR Stem-Loop Driven Alpha-Synuclein mRNA Translation in H4 Neuroglioblastoma Cells. [Related pubchem assays: 1829 (Project Summary), 1814 (Primary HTS)]; type: functional
[14] = Luminescence Cell-Based Dose Response HTS to Identify Activators of Luciferase Translation or Activity in H4 […] Cells. [Related pubchem assays: 1829 (Project Summary), 1814 (Primary HTS)]; type: functional
[15] = LGR2 antagonists, dose response, cell-based, HEK293, CRE-luciferase reporter, cherry pick, set 2 (AID 743343); type: functional;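 further: transfected cells were stimulated with diluted bursicon conditioned medium after compound addition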
[16] = MC4R antagonists, dose response, counter-screen for LGR2 antagonist project, cell-based, plate reader, cherry pick (AID 743444); type: functional;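 further: transfected HEK 293 cells stimulated with alpha-MSH peptide; potency of inhibitors of the alpha-MSH evoked signal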
H4 = experiment: Luminescence Cell-Based Dose Response HTS to Identify Activators of 5'UTR Stem-Loop Driven Prion Protein mRNA Translation in H4 Neuroglioblastoma Cells. [Related pubchem assays: 1829 (Project Summary), 1814 (Primary HTS)]; type: functional; conditions: Homo sapiens

Row | Structure (SMILES) | EC50 [1] | EC50 (BJ [2]) | EC50 (BJ [3]) | EC50 (BJ [4]) | IC50 [5] | EC50 [13] | EC50 [14] | EC50 (H4) | further results
1 | COc1cc(OC)cc(C(=O)NNC(=O)C2CCCC2)c1 | > 150 µM (not active) | > 150 µM (not active) | > 150 µM (not active) | > 150 µM (not active) |  |  |  |  | 
2 | O=C1C(Cl)=C(N2CCN(CCO)CC2)C(=O)N1c1ccnc(Cl)c1 |  |  |  |  | > 50 µM (inconclusive) |  |  |  | 
3 | O=C(CCC1CCCCC1)Nc1nc[nH]n1 |  |  |  |  | > 10 µM (inconclusive) |  |  |  | 
4 | O=c1c(Cl)c(Cl)cnn1Cc1nnc(-c2ccc(Cl)cc2)o1 |  |  |  |  |  | > 120 µM (not active) | > 120 µM (not active) | > 120 µM (not active) | EC50 (Protein RecA): 2.95 µM (active); AC50 [6]: 9.97 µM (active); EC50 [7]: 2.02 µM (active); AC50 [8]: 8.16 µM (active); AC50 [9]: 7.33 µM (active); AC50 [10]: 8.01 µM (active); EC50 [11]: 1.15 µM (active); AC50 [12]: 7.83 µM (active); AC50 [15]: 25.3 µM (active); AC50 [16]: 30.9 µM (active)
5 | Cn1cc(C(=O)N/N=C/c2ccc3c(c2)OCO3)c2ccccc21 | 19.6 µM (active) | > 150 µM (inconclusive) | 44.9 µM (active) | 124 µM (active) |  | > 120 µM (not active) | 5.78 µM (active) | 5.85 µM (active) | 
